Results from patent US10927110B2, “Cyano-subtituted heterocycles with activity as inhibitors of USP30” (MISSION THERAPEUTICS LIMITED, priority 2016, dated 2021).

molecular target: USP30 (Homo sapiens (Human), UniProt Q70CQ3); assay: USP30 Biochemical IC50 Assay; details: fluorescence polarisation, TAMRA labelled peptide linked to ubiquitin; 30 min pre-incubation, read after 2 h at room temperature; read-out: IC50 range
Description: USP30 Biochemical IC50 Assay
Dilution plates were prepared at 21 times the final concentration (2100 μM for a final concentration of 100 μM) in 50% DMSO in a 96-well polypropylene V-bottom plate (Greiner #651201). A typical 8-point dilution series would be 100, 30, 10, 3, 1, 0.3, 0.1, […]. Reactions were performed in duplicate in black 384 well plates (small volume, Greiner 784076) in a final reaction volume of 21 μl. Either 1 μl of 50% DMSO or diluted compound was added to the plate. USP30 was diluted in reaction buffer (40 mM Tris, pH 7.5, 0.005% Tween 20, 0.5 mg/ml BSA, 5 mM beta-mercaptoethanol) to the equivalent of 0.05 μl/well and 10 μl of diluted USP30 was added to the compound. Enzyme and compound were incubated for 30 min at room temp. Reactions were initiated by the addition of 50 nM of TAMRA labelled peptide linked to ubiquitin via an iso-peptide bond as fluorescence polarisation substrate. Reactions were read immediately after addition of substrate and following a 2 h incubation at room temperature. Readings were performed on a Pherastar Plus (BMG Labtech). λ Excitation 540 nm; λ Emission 590 nm.

USP30, sequence (Q70CQ3 57-517): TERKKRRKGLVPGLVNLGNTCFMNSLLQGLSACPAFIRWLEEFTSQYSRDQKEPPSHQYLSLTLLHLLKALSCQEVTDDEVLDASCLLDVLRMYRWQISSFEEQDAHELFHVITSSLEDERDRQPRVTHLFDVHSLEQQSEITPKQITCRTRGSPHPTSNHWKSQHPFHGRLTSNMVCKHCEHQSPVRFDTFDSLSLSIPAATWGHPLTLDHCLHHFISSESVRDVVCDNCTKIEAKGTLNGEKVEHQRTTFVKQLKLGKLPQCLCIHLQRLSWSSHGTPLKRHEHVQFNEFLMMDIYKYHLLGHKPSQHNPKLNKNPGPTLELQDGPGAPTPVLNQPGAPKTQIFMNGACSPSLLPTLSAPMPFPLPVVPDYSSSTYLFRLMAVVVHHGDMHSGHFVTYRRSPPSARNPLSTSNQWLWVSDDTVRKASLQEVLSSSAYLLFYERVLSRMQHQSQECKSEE

Question: `N#CN1CCCC(F)(c2nc3ccc(-c4ccn[nH]4)nc3[nH]2)C1` (racemic) [Example 17, 3-(5-(1H-pyrazol-5-yl)-3H-imidazo[4,5-b]pyridin-2-yl)-3-fluoropiperidine-1-carbonitrile] was tested. Which IC50 did it give?
Answer: 1 to 10 µM

Question: How did the IC50 turn out when `N#Cc1cccc(-c2ccc3nc(C4(F)CCCN(C#N)C4)[nH]c3n2)c1` (stereo in doubt) [Example 16, (S)-3-(5-(3-cyanophenyl)-3H-imidazo[4,5-b]pyridin-2-yl)-3-fluoropiperidine-1-carbonitrile] was run?
Answer: 0.01 to 0.1 µM

Question: Which IC50 does the source give for `N#Cc1cccc(-c2cnc3oc([C@@]4(F)CCCN(C#N)C4)nc3c2)c1` (stereo in doubt) [Example 28, 3-(6-(3-cyanophenyl)oxazolo[5,4-b]pyridin-2-yl)-3-fluoropiperidine-1-carbonitrile] here?
Answer: 0.1 to 1 µM

Question: With `N#CN1CCOC(c2nc(-c3cccc(-c4ccccc4)c3)n[nH]2)C1` (centres unmarked) [Example 6, 2-(3-([1,1′-Biphenyl]-3-yl)-H-1,2,4-triazol-5-yl)morpholine-4-carbonitrile] as the compound, how does the IC50 read?
Answer: 1 to 10 µM

Question: `N#CN1CCC[C@](F)(c2nnc(-c3cccc(-c4ccccc4)c3)o2)C1` [Example 9, (R)-3-(5-([1,1′-biphenyl]-3-yl)-1,3,4-oxadiazol-2-yl)-3-fluoropiperidine-1-carbonitrile] was tested. Which IC50 did it give?
Answer: 0.01 to 0.1 µM

Question: For `N#CN1CCCC(F)(c2nnc(-c3ccc(-c4ccccc4)cc3)o2)C1` (centres unmarked) [Example 10, 3-(5-([1,1′-biphenyl]-4-yl)-1,3,4-oxadiazol-2-yl)-3-fluoropiperidine-1-carbonitrile], which IC50 is on record?
Answer: 0.1 to 1 µM

Question: For `N#Cc1cc(-c2cc(-c3nnc([C@@]4(F)CCCN(C#N)C4)o3)ccn2)ccn1` [Example 11, (R)-4-(5-(1-cyano-3-fluoropiperidin-3-yl)-1,3,4-oxadiazol-2-yl)-[2,4′-bipyridine]-2′-carbonitrile], which IC50 is on record?
Answer: 0.1 to 1 µM

Question: For `N#Cc1cc(-c2nnc([C@@]3(F)CCCN(C#N)C3)o2)ccn1` [Example 12, (R)-4-(5-(1-cyano-3-fluoropiperidin-3-yl)-1,3,4-oxadiazol-2-yl)picolinonitrile], which IC50 is on record?
Answer: 1 to 10 µM

Question: How did the IC50 turn out when `N#Cc1cc(-c2ccnc(-c3nnc([C@@]4(F)CCCN(C#N)C4)o3)c2)ccn1` [Example 13, (R)-2′-(5-(1-cyano-3-fluoropiperidin-3-yl)-1,3,4-oxadiazol-2-yl)-[4,4′-bipyridine]-2-carbonitrile] was run?
Answer: 1 to 10 µM

Question: How did the IC50 turn out when `N#CN1CCCC(F)(c2nc3ccc(-c4ccn[nH]4)cc3[nH]2)C1` (centres unmarked) [Example 14, 3-(6-(H-pyrazol-5-yl)-1H-benzo[d]imidazol-2-yl)-3-fluoropiperidine-1-carbonitrile] was run?
Answer: 1 to 10 µM

Question: With `N#CN1CCC[C@](F)(c2nc3ccc(-c4ccccc4)nc3[nH]2)C1` [Example 15, (R)-3-fluoro-3-(5-phenyl-3H-imidazo[4,5-b]pyridin-2-yl)piperidine-1-carbonitrile] as the compound, how does the IC50 read?
Answer: 0.1 to 1 µM

Question: `N#Cc1cc(-c2cnc3nc([C@@]4(F)CCCN(C#N)C4)[nH]c3c2)ccn1` [Example 18, (R)-4-(2-(1-cyano-3-fluoropiperidin-3-yl)-3H-imidazo[4,5-b]pyridin-6-yl)picolinonitrile] was tested. Which IC50 did it give?
Answer: 0.1 to 1 µM

Question: For `N#Cc1cc(-c2ccc3nc([C@@]4(F)CCCN(C#N)C4)[nH]c3n2)ccn1` [Example 19, (R)-4-(2-(1-cyano-3-fluoropiperidin-3-yl)-1H-imidazo[4,5-b]pyridin-5-yl)picolinonitrile], which IC50 is on record?
Answer: 0.1 to 1 µM

Question: Which IC50 does the source give for `N#Cc1cccc(-c2ccc3nc([C@@]4(F)CCCN(C#N)C4)[nH]c3n2)n1` [Example 21, (R)-6-(2-(1-cyano-3-fluoropiperidin-3-yl)-3H-imidazo[4,5-b]pyridin-5-yl)picolinonitrile] here?
Answer: 1 to 10 µM

Question: How did the IC50 turn out when `N#Cc1cccc(-c2ccc3oc([C@@]4(F)CCCN(C#N)C4)nc3c2)c1` [Example 22, (R)-3-(5-(3-cyanophenyl)benzo[d]oxazol-2-yl)-3-fluoropiperidine-1-carbonitrile] was run?
Answer: 0.01 to 0.1 µM

Question: How did the IC50 turn out when `N#Cc1cc(-c2ccc3oc([C@@]4(F)CCCN(C#N)C4)nc3c2)ncn1` [Example 23, (R)-6-(2-(1-cyano-3-fluoropiperidin-3-yl)benzo[d]oxazol-5-yl)pyrimidine-4-carbonitrile] was run?
Answer: 0.1 to 1 µM

Question: With `N#Cc1ccnc(-c2ccc3oc([C@@]4(F)CCCN(C#N)C4)nc3c2)n1` [Example 24, (R)-2-(2-(1-cyano-3-fluoropiperidin-3-yl)benzo[d]oxazol-5-yl)pyrimidine-4-carbonitrile] as the compound, how does the IC50 read?
Answer: 0.1 to 1 µM

Question: With `N#Cc1cc(-c2ccc3oc([C@@]4(F)CCCN(C#N)C4)nc3c2)ccn1` [Example 25, (R)-4-(2-(1-cyano-3-fluoropiperidin-3-yl)benzo[d]oxazol-5-yl)picolinonitrile] as the compound, how does the IC50 read?
Answer: 0.01 to 0.1 µM

Question: With `N#Cc1ccnc(-c2ccc3oc([C@@]4(F)CCCN(C#N)C4)nc3c2)c1` [Example 26, (R)-2-(2-(1-cyano-3-fluoropiperidin-3-yl)benzo[d]oxazol-5-yl)isonicotinonitrile] as the compound, how does the IC50 read?
Answer: 0.1 to 1 µM

Question: With `N#Cc1cc(-c2ccc3nc([C@@]4(F)CCCN(C#N)C4)oc3c2)ccn1` [Example 27, (R)-4-(2-(1-cyano-3-fluoropiperidin-3-yl)benzo[d]oxazol-6-yl)picolinonitrile] as the compound, how does the IC50 read?
Answer: 0.1 to 1 µM

Question: With `N#Cc1cccc(-c2cnc3nc(C4(F)CCCN(C#N)C4)oc3c2)c1` (centres unmarked) [Example 29, 3-(6-(3-cyanophenyl)oxazolo[4,5-b]pyridin-2-yl)-3-fluoropiperidine-1-carbonitrile] as the compound, how does the IC50 read?
Answer: 0.1 to 1 µM

Question: `N#Cc1cc(-c2cnc3oc([C@@]4(F)CCCN(C#N)C4)nc3c2)ccn1` [Example 30, (R)-4-(2-(1-cyano-3-fluoropiperidin-3-yl)oxazolo[5,4-b]pyridin-6-yl)picolinonitrile] was tested. Which IC50 did it give?
Answer: 0.1 to 1 µM

Question: How did the IC50 turn out when `N#Cc1cc(-c2ccn3cc([C@@]4(F)CCCN(C#N)C4)nc3c2)ccn1` [Example 31, (R)-4-(2-(1-cyano-3-fluoropiperidin-3-yl)imidazo[1,2-a]pyridin-7-yl)picolinonitrile] was run?
Answer: 0.1 to 1 µM
